Our source for the IC50 values is US6638973B2, “Taxane formulations” (FSU Research Foundation, Inc., priority 2000, dated 2003).

The first assay relates to HCT116 cells. Put plainly: In vitro cytotoxicity measured by the cell colony formation assay. The format is cell-based. Particulars: HCT116 cells, 72 h incubation with drug, colonies counted after 7 days; ID50 = drug concentration producing 50% inhibition of colony formation; read-out: IN VITRO ID 50 (nm) HCT116. An outline of the steps: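 Colony-forming survival was scored 7 days after a 72 h, 37 °C compound exposure followed by washout into fresh medium.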
With `COC(=O)O[C@H]1C[C@H]2OC[C@@]2(OC(C)=O)C2[C@H](OC(=O)c3ccccc3)[C@]3(O)C[C@H](OC(=O)[C@H](O)[C@@H](NC(=O)OCC(C)C)c4ccsc4)C(C)=C([C@@H](O)C(=O)[C@@]21C)C3(C)C` (stereo partly drawn) [Compound 4674], the IC50 is less than 1 nM.
The same measure, in the same setting: the value for `CCOC(=O)O[C@H]1C[C@H]2OC[C@@]2(OC(C)=O)C2[C@H](OC(=O)c3ccccc3)[C@]3(O)C[C@H](OC(=O)[C@H](O)[C@H](C=C(C)C)NC(=O)OCC(C)C)C(C)=C([C@@H](O)C(=O)[C@@]21C)C3(C)C` (stereo partly drawn) [Compound 4688] was less than 10 nM.
As to `CCOC(=O)O[C@H]1C[C@H]2OC[C@@]2(OC(C)=O)C2[C@H](OC(=O)c3ccccc3)[C@]3(O)C[C@H](OC(=O)[C@H](O)[C@@H](NC(=O)OCC(C)C)c4ccco4)C(C)=C([C@@H](O)C(=O)[C@@]21C)C3(C)C` (stereo partly drawn) [Compound 4696], the IC50 was less than 1 nM.
The same measure, in the same setting: the value for `C/C=C/C(=O)N[C@@H](c1ccco1)[C@@H](O)C(=O)O[C@H]1C[C@@]2(O)[C@@H](OC(=O)c3ccccc3)C3[C@](C)(C(=O)[C@H](O)C(=C1C)C2(C)C)[C@@H](OC(=O)OC)C[C@H]1OC[C@@]31OC(C)=O` (stereo partly drawn) [Compound 4744] was less than 1 nM.
Turning to `C/C=C/C(=O)N[C@@H](c1cccs1)[C@@H](O)C(=O)O[C@H]1C[C@@]2(O)[C@@H](OC(=O)c3ccccc3)C3[C@](C)(C(=O)[C@H](O)C(=C1C)C2(C)C)[C@@H](OC(=O)OC)C[C@H]1OC[C@@]31OC(C)=O` (stereo partly drawn) [Compound 4766], the IC50 was less than 1 nM.
In the case of `C/C=C/C(=O)N[C@@H](c1ccco1)[C@@H](O)C(=O)O[C@H]1C[C@@]2(O)[C@@H](OC(=O)c3ccccc3)C3[C@](C)(C(=O)[C@H](O)C(=C1C)C2(C)C)[C@@H](OC(=O)OCC)C[C@H]1OC[C@@]31OC(C)=O` (stereo partly drawn) [Compound 4818], the IC50 is less than 1 nM.
For the compound `CCOC(=O)O[C@H]1C(=O)[C@@]2(C)C([C@H](OC(=O)c3ccccc3)[C@]3(O)C[C@H](OC(=O)[C@H](O)[C@@H](NC(=O)OCC(C)C)C4CC4)C(C)=C1C3(C)C)[C@]1(OC(C)=O)CO[C@@H]1C[C@@H]2O` (stereo partly drawn) [Compound 4844], the IC50 is less than 1 nM.
On to `C/C=C/C(=O)N[C@@H](c1cccs1)[C@@H](O)C(=O)O[C@H]1C[C@@]2(O)[C@@H](OC(=O)c3ccccc3)C3[C@](C)(C(=O)[C@H](O)C(=C1C)C2(C)C)[C@@H](OC(=O)OCC)C[C@H]1OC[C@@]31OC(C)=O` (stereo partly drawn) [Compound 4855], for which the IC50 is less than 1 nM.
As for `C/C=C/C(=O)N[C@@H](c1ccoc1)[C@@H](O)C(=O)O[C@H]1C[C@@]2(O)[C@@H](OC(=O)c3ccccc3)C3[C@](C)(C(=O)[C@H](O)C(=C1C)C2(C)C)[C@@H](OC(=O)OC)C[C@H]1OC[C@@]31OC(C)=O` (stereo partly drawn) [Compound 4877], the IC50 is less than 1 nM.
Consider `C/C=C/C(=O)N[C@@H](c1ccoc1)[C@@H](O)C(=O)O[C@H]1C[C@@]2(O)[C@@H](OC(=O)c3ccccc3)C3[C@](C)(C(=O)[C@H](O)C(=C1C)C2(C)C)[C@@H](OC(=O)OCC)C[C@H]1OC[C@@]31OC(C)=O` (stereo partly drawn) [Compound 4904], for which the IC50 is less than 10 nM.
Turning to `CCOC(=O)O[C@H]1C(=O)[C@@]2(C)C([C@H](OC(=O)c3ccccc3)[C@]3(O)C[C@H](OC(=O)[C@H](O)[C@@H](NC(=O)OCC(C)C)c4ccsc4)C(C)=C1C3(C)C)[C@]1(OC(C)=O)CO[C@@H]1C[C@@H]2O` (stereo partly drawn) [Compound 4924], the IC50 was less than 10 nM.
The same measure, in the same setting: the value for `CC=CC(=O)NC(c1ccoc1)C(O)C(=O)OC1CC2(O)C(OC(=O)c3ccccc3)C3C4(OC(C)=O)COC4CC(O)C3(C)C(=O)C(OC(=O)OCC)C(=C1C)C2(C)C` (stereo not drawn) [Compound 4959] was less than 1 nM; that for `C/C=C/C(=O)N[C@@H](c1ccsc1)[C@@H](O)C(=O)O[C@H]1C[C@@]2(O)[C@@H](OC(=O)c3ccccc3)C3[C@](C)(C(=O)[C@H](O)C(=C1C)C2(C)C)[C@@H](OC(=O)OC)C[C@H]1OC[C@@]31OC(C)=O` (stereo partly drawn) [Compound 4969] was less than 1 nM.
Same read-out and setting: for `CCOC(=O)O[C@H]1C[C@H]2OC[C@@]2(OC(C)=O)C2[C@H](OC(=O)c3ccccc3)[C@]3(O)C[C@H](OC(=O)[C@H](O)[C@@H](NC(=O)OCC(C)C)c4ccsc4)C(C)=C([C@@H](O)C(=O)[C@@]21C)C3(C)C` (stereo partly drawn) [Compound 4979] the value was less than 10 nM; for `C/C=C/C(=O)N[C@@H](c1ccsc1)[C@@H](O)C(=O)O[C@H]1C[C@@]2(O)[C@@H](OC(=O)c3ccccc3)C3[C@](C)(C(=O)[C@H](O)C(=C1C)C2(C)C)[C@@H](OC(=O)OCC)C[C@H]1OC[C@@]31OC(C)=O` (stereo partly drawn) [Compound 4999], less than 1 nM.

Staying with this assay, now noted: HCT116 colony formation; 72 h drug incubation, colonies counted after 7 days; Example 5, C-7 ester/C-10 hydroxy taxanes; read-out: IN VITRO ID 50 (nm) HCT116.
With `C/C=C/C(=O)N[C@@H](c1ccco1)[C@@H](O)C(=O)O[C@H]1C[C@@]2(O)[C@@H](OC(=O)c3ccccc3)C3[C@](C)(C(=O)[C@H](O)C(=C1C)C2(C)C)[C@@H](OC(=O)CCC)C[C@H]1OC[C@@]31OC(C)=O` (stereo partly drawn) [Compound 4737], the IC50 was less than 1 nM.
For `C/C=C/C(=O)N[C@@H](c1cccs1)[C@@H](O)C(=O)O[C@H]1C[C@@]2(O)[C@@H](OC(=O)c3ccccc3)C3[C@](C)(C(=O)[C@H](O)C(=C1C)C2(C)C)[C@@H](OC(=O)CCC)C[C@H]1OC[C@@]31OC(C)=O` (stereo partly drawn) [Compound 4757], the IC50 was less than 1 nM.
In the case of `CCC(=O)O[C@H]1C[C@H]2OC[C@@]2(OC(C)=O)C2[C@H](OC(=O)c3ccccc3)[C@]3(O)C[C@H](OC(=O)[C@H](O)[C@@H](NC(=O)OCC(C)C)c4ccoc4)C(C)=C([C@@H](O)C(=O)[C@@]21C)C3(C)C` (stereo partly drawn) [Compound 4787], the IC50 is less than 10 nM.
Regarding `CCCC(=O)O[C@H]1C[C@H]2OC[C@@]2(OC(C)=O)C2[C@H](OC(=O)c3ccccc3)[C@]3(O)C[C@H](OC(=O)[C@H](O)[C@@H](NC(=O)OCC(C)C)c4ccoc4)C(C)=C([C@@H](O)C(=O)[C@@]21C)C3(C)C` (stereo partly drawn) [Compound 4828], the IC50 was less than 10 nM.
Consider `C/C=C/C(=O)N[C@@H](c1ccoc1)[C@@H](O)C(=O)O[C@H]1C[C@@]2(O)[C@@H](OC(=O)c3ccccc3)C3[C@](C)(C(=O)[C@H](O)C(=C1C)C2(C)C)[C@@H](OC(=O)CC)C[C@H]1OC[C@@]31OC(C)=O` (stereo partly drawn) [Compound 4898], for which the IC50 is less than 1 nM.
With `C/C=C/C(=O)N[C@@H](c1ccoc1)[C@@H](O)C(=O)O[C@H]1C[C@@]2(O)[C@@H](OC(=O)c3ccccc3)C3[C@](C)(C(=O)[C@H](O)C(=C1C)C2(C)C)[C@@H](OC(=O)CCC)C[C@H]1OC[C@@]31OC(C)=O` (stereo partly drawn) [Compound 4939], the IC50 was less than 1 nM.
Regarding `C/C=C/C(=O)N[C@@H](c1ccsc1)[C@@H](O)C(=O)O[C@H]1C[C@@]2(O)[C@@H](OC(=O)c3ccccc3)C3[C@](C)(C(=O)[C@H](O)C(=C1C)C2(C)C)[C@@H](OC(=O)CC)C[C@H]1OC[C@@]31OC(C)=O` (stereo partly drawn) [Compound 5020], the IC50 was less than 1 nM.

The same assay, now with this note: HCT116 colony formation; 72 h drug incubation, colonies counted after 7 days; Example 10, C-10 ester/C-7 hydroxy taxanes; read-out: IN VITRO ID 50 (nm) HCT116.
As for `CC(=O)O[C@@]12CO[C@@H]1C[C@H](O)[C@@]1(C)C(=O)[C@H](OC(=O)C3CC3)C3=C(C)[C@@H](OC(=O)[C@H](O)[C@@H](NC(=O)OCC(C)C)c4ccoc4)C[C@@](O)([C@@H](OC(=O)c4ccccc4)C12)C3(C)C` (stereo partly drawn) [Compound 4665], the IC50 is less than 10 nM.
The same measure, in the same setting: the value for `CCCC(=O)O[C@H]1C(=O)[C@@]2(C)C([C@H](OC(=O)c3ccccc3)[C@]3(O)C[C@H](OC(=O)[C@H](O)[C@@H](NC(=O)OCC(C)C)c4ccoc4)C(C)=C1C3(C)C)[C@]1(OC(C)=O)CO[C@@H]1C[C@@H]2O` (stereo partly drawn) [Compound 4704] was less than 10 nM.
Turning to `CCC(=O)O[C@H]1C(=O)[C@@]2(C)C([C@H](OC(=O)c3ccccc3)[C@]3(O)C[C@H](OC(=O)[C@H](O)[C@@H](NC(=O)OCC(C)C)c4ccsc4)C(C)=C1C3(C)C)[C@]1(OC(C)=O)CO[C@@H]1C[C@@H]2O` (stereo partly drawn) [Compound 4711], the IC50 was less than 10 nM.
In the case of `CC(=O)O[C@@]12CO[C@@H]1C[C@H](O)[C@@]1(C)C(=O)[C@H](OC(=O)C3CC3)C3=C(C)[C@@H](OC(=O)[C@H](O)[C@H](C=C(C)C)NC(=O)OCC(C)C)C[C@@](O)([C@@H](OC(=O)c4ccccc4)C12)C3(C)C` (stereo partly drawn) [Compound 4720], the IC50 was less than 10 nM.
Same read-out and setting: the value for `CCC(=O)O[C@H]1C(=O)[C@@]2(C)C([C@H](OC(=O)c3ccccc3)[C@]3(O)C[C@H](OC(=O)[C@H](O)[C@@H](NC(=O)OCC(C)C)C4CC4)C(C)=C1C3(C)C)[C@]1(OC(C)=O)CO[C@@H]1C[C@@H]2O` (stereo partly drawn) [Compound 4799] was less than 1 nM; that for `CCCC(=O)O[C@H]1C(=O)[C@@]2(C)C([C@H](OC(=O)c3ccccc3)[C@]3(O)C[C@H](OC(=O)[C@H](O)[C@@H](NC(=O)OCC(C)C)C4CC4)C(C)=C1C3(C)C)[C@]1(OC(C)=O)CO[C@@H]1C[C@@H]2O` (stereo partly drawn) [Compound 4808] was less than 10 nM; that for `CCCC(=O)O[C@H]1C(=O)[C@@]2(C)C([C@H](OC(=O)c3ccccc3)[C@]3(O)C[C@H](OC(=O)[C@H](O)[C@@H](NC(=O)OCC(C)C)c4ccsc4)C(C)=C1C3(C)C)[C@]1(OC(C)=O)CO[C@@H]1C[C@@H]2O` (stereo partly drawn) [Compound 4834] was less than 10 nM.
Regarding `C/C=C/C(=O)N[C@@H](c1ccoc1)[C@@H](O)C(=O)O[C@H]1C[C@@]2(O)[C@@H](OC(=O)c3ccccc3)C3[C@](C)(C(=O)[C@H](OC(=O)CC)C(=C1C)C2(C)C)[C@@H](O)C[C@H]1OC[C@@]31OC(C)=O` (stereo partly drawn) [Compound 4888], the IC50 was less than 1 nM.
On the same count and under the same terms, the value for `C/C=C/C(=O)N[C@@H](c1ccoc1)[C@@H](O)C(=O)O[C@H]1C[C@@]2(O)[C@@H](OC(=O)c3ccccc3)C3[C@](C)(C(=O)[C@H](OC(=O)CCC)C(=C1C)C2(C)C)[C@@H](O)C[C@H]1OC[C@@]31OC(C)=O` (stereo partly drawn) [Compound 4919] was less than 1 nM; that for `C/C=C/C(=O)N[C@@H](c1ccoc1)[C@@H](O)C(=O)O[C@H]1C[C@@]2(O)[C@@H](OC(=O)c3ccccc3)C3[C@](C)(C(=O)[C@H](OC(=O)C4CC4)C(=C1C)C2(C)C)[C@@H](O)C[C@H]1OC[C@@]31OC(C)=O` (stereo partly drawn) [Compound 4944] was less than 1 nM; that for `CC(=O)O[C@@]12CO[C@@H]1C[C@H](O)[C@@]1(C)C(=O)[C@H](OC(=O)C3CC3)C3=C(C)[C@@H](OC(=O)[C@H](O)[C@@H](NC(=O)OCC(C)C)c4ccsc4)C[C@@](O)([C@@H](OC(=O)c4ccccc4)C12)C3(C)C` (stereo partly drawn) [Compound 5011] was less than 10 nM.
